In ChEMBL document CHEMBL2346628, “Real-time analysis of membrane permeabilizing effects of oleanane saponins” (Bioorg Med Chem, 2013):
Activity calls are given as the source filed them. The rule behind the calls is not given here.

Tests used:
[1] = Hemolytic activity against human RBC at 24 uM after 30 mins relative to control; assay type: ADME, cell-based, Erythrocyte
[2] = Hemolytic activity against human RBC at 12 uM after 30 mins relative to control; assay type: ADME, cell-based, Erythrocyte; details: for hemolysis at 0.5 h, 12 µM: red blood cells (RBC), read-out: Activity
[3] = Hemolytic activity against human RBC at 6 uM after 30 mins relative to control; assay type: ADME, cell-based, Erythrocyte; details: red blood cells (RBC), read-out: Activity
[4] = tested on: ECV-304; test: Cytotoxicity against human ECV304 cells at 24 uM after 3 hrs; assay type: cell-based; details: ecv-304, 3 h
[5] = tested on: ECV-304; test: Membrane permeabilization effect on human ECV304 cells assessed as normalized cell index at 24 uM measured every 15 secs for 3 hrs by real time impedance-based plate reader analysis relative to control; assay type: functional
[6] = Hemolytic activity against human RBC at 48 uM after 30 mins; assay type: ADME, cell-based; details: erythrocyte, 0.5 h
[7] = Hemolytic activity against human RBC up to 12 uM after 30 mins; assay type: ADME, cell-based; details: erythrocyte, 0.5 h
[8] = tested on: ECV-304; test: Membrane permeabilization effect on lysosome of human ECV304 cells assessed as induction of membrane lysis up to 6 uM after 1 hr by N-Acetylglucosaminidase release assay; assay type: functional, cell-based
[9] = tested on: ECV-304; test: Membrane permeabilization effect on lysosome of human ECV304 cells assessed as induction of membrane lysis at 48 uM after 1 hr by N-Acetylglucosaminidase release assay; assay type: functional, cell-based
[10] = tested on: ECV-304; test: Membrane permeabilization effect on human ECV304 cells assessed as increase in propidium iodide uptake at 24 to 48 uM after 1 hr by FACS flow cytometric analysis; assay type: functional, cell-based
[11] = tested on: ECV-304; test: Membrane permeabilization effect on human ECV304 cells at 12 to 24 uM measured every 15 secs for 3 hrs by real time impedance-based plate reader analysis; assay type: functional, cell-based
[12] = tested on: ECV-304; test: Membrane permeabilization effect on human ECV304 cells at 6 uM measured every 15 secs for 3 hrs by real time impedance-based plate reader analysis; assay type: functional, cell-based
[13] = Hemolytic activity against human RBC at 3 uM after 30 mins relative to control; assay type: ADME, cell-based, Erythrocyte; details: red blood cells (RBC), read-out: Activity
[14] = tested on: ECV-304; test: Membrane permeabilization effect on lysosome of human ECV304 cells at 6 to 48 uM after 1 hr by N-Acetylglucosaminidase release assay; assay type: functional, cell-based
[15] = tested on: ECV-304; test: Membrane permeabilization effect on human ECV304 cells assessed as induction of membrane lysis at 48 uM after 1 hr; assay type: functional, cell-based
[16] = tested on: ECV-304; test: Membrane permeabilization effect on human ECV304 cells assessed as increase in propidium iodide uptake at 24 uM after 1 hr by FACS flow cytometric analysis; assay type: functional, cell-based
[17] = tested on: ECV-304; test: Membrane permeabilization effect on human ECV304 cells at 3 uM measured every 15 secs for 3 hrs by real time impedance-based plate reader analysis; assay type: functional, cell-based
[18] = tested on: ECV-304; test: Membrane permeabilization effect on lysosome of human ECV304 cells assessed as induction of membrane lysis at 24 to 48 uM after 1 hr by N-Acetylglucosaminidase release assay; assay type: functional, cell-based
[19] = tested on: ECV-304; test: Membrane permeabilization effect on human ECV304 cells assessed as increase in propidium iodide uptake at 12 uM after 1 hr by FACS flow cytometric analysis; assay type: functional, cell-based
[20] = tested on: ECV-304; test: Membrane permeabilization effect on human ECV304 cells assessed as normalized cell index at 12 to 24 uM measured every 15 secs for 3 hrs by real time impedance-based plate reader analysis relative to control relative to control; assay type: functional
[21] = tested on: ECV-304; test: Membrane permeabilization effect on human ECV304 cells assessed as normalized cell index at 6 uM measured every 15 secs for 3 hrs by real time impedance-based plate reader analysis relative to control; assay type: functional

CCC(C)C(CC(O)CC(=O)O[C@H]1[C@@H](O)[C@@H](C)O[C@@H](OC(=O)[C@]23CCC(C)(C)C[C@H]2C2=CC[C@@H]4[C@@]5(C)CC[C@H](O[C@H]6O[C@H](C(=O)O)[C@@H](O)[C@H](O[C@@H]7OC[C@@H](O)[C@H](O)[C@H]7O)[C@H]6O[C@@H]6O[C@H](CO)[C@H](O)[C@H](O)[C@H]6O)[C@@](C)(C=O)[C@@H]5CC[C@@]4(C)[C@]2(C)C[C@H]3O)[C@@H]1O[C@@H]1O[C@@H](C)[C@H](O[C@@H]2OC[C@@H](O)[C@H](O[C@@H]3OCC(O)(O)[C@H]3O)[C@H]2O)[C@@H](O[C@@H]2O[C@H](CO)[C@@H](O)[C@H](O)[C@H]2O)[C@H]1O)OC(=O)CC(O)CC(O[C@@H]1O[C@@H](CO)[C@H](O)[C@H]1O[C@@H]1O[C@@H](C)[C@H](O)[C@@H](O)[C@H]1O)C(C)CC (stereo in doubt; form 1)
Activity ([1]; erythrocyte, 0.5 h, 24 µM): Toxic | hemolysis at 0.5 h, 12 µM [2]: 67% | hemolysis at 0.5 h, 6 µM [3]: 27% | Activity [4]: Toxic | fold change (FC) [5]: 0.1

C[C@@H]1O[C@@H](O[C@H]2[C@H](OC(=O)[C@]34CCC(C)(C)C[C@H]3C3=CC[C@@H]5[C@@]6(C)CC[C@H](O[C@H]7O[C@H](C(=O)O)[C@@H](O)[C@H](O[C@@H]8OC[C@@H](O)[C@H](O)[C@H]8O)[C@H]7O[C@@H]7O[C@H](CO)[C@H](O)[C@H](O)[C@H]7O)[C@@](C)(C=O)[C@@H]6CC[C@@]5(C)[C@]3(C)CC4)O[C@H](C)[C@H](O[C@@H]3O[C@H](C)[C@@H](O)[C@H](O)[C@H]3O)[C@@H]2O)[C@H](O)[C@H](O)[C@H]1O[C@@H]1OC[C@@H](O)[C@H](O[C@@H]2OC[C@@H](O)[C@H](O)[C@H]2O)[C@H]1O
Activity [6]: Toxic | hemolysis at 0.5 h, 24 µM ([1]; red blood cells (RBC), read-out: Activity): 30% | Activity [7]: Non-toxic | Activity [8]: inactive | Activity [9]: inactive | Activity [10]: Active | Activity [11]: inactive | Activity [12]: Active

C[C@@H]1CC[C@@]2(OC1)O[C@H]1[C@@H](O)[C@H]3[C@@H]4CC[C@H]5C[C@@H](O[C@@H]6O[C@H](CO)[C@H](O[C@@H]7O[C@H](CO)C(O)[C@H](O[C@@H]8OC[C@@H](O)[C@H](O)[C@H]8O)[C@H]7O[C@@H]7O[C@H](CO)[C@H](O)[C@H](O[C@@H]8O[C@H](CO)[C@@H](O)[C@H](O)[C@H]8O)[C@H]7O)[C@H](O)[C@H]6O)[C@H](O)C[C@]5(C)[C@H]4CC[C@]3(C)[C@H]1[C@@H]2C (stereo not given in full) [DIGITONIN]
hemolysis at 0.5 h, 12 µM [2]: > 80% | hemolysis at 0.5 h, 6 µM [3]: 68% | hemolysis at 0.5 h, 3 µM [13]: 22% | Activity [8]: inactive | Activity [14]: Active | Activity [15]: Active | Activity [16]: Active | Activity [17]: Active

CC(=O)O[C@H]1[C@H](O[C@@H]2OC[C@@H](O)[C@H](O)[C@H]2O)[C@@H](O)[C@H](O[C@@H]2[C@H](O)[C@@H](O[C@@H]3O[C@@H](C)[C@H](O[C@@H]4OC[C@@H](O)[C@H](O[C@@H]5OC[C@@H](O)[C@H](O)[C@H]5O)[C@H]4O)[C@@H](O)[C@H]3O)[C@H](OC(=O)[C@]34CCC(C)(C)C[C@H]3C3=CC[C@@H]5[C@@]6(C)CC[C@H](O[C@H]7O[C@H](C(=O)O)[C@@H](O)[C@H](O[C@@H]8OC[C@@H](O)[C@H](O)[C@H]8O)[C@H]7O[C@@H]7O[C@H](CO)[C@H](O)[C@H](O)[C@H]7O)[C@@](C)(C=O)[C@@H]6CC[C@@]5(C)[C@]3(C)C[C@H]4O)O[C@@H]2C)O[C@@H]1C
Activity ([2]; erythrocyte, 0.5 h, 12 µM): Toxic | hemolysis at 0.5 h, 6 µM [3]: 61% | Activity [18]: Active | Activity [8]: inactive | Activity [19]: Active | Activity [15]: Active | fold change (FC) [20]: 0 | fold change (FC) [21]: 0.6 | Activity [17]: inactive
